Tested on: psoriasis
Test: Topical dosage form of CAPE in petroleum jelly for treating psoriasis
Type: in vivo
Conditions: 10.0 weight percent in petroleum jelly
Text: In some embodiments, the topical dosage forms may contain 0.5 weight percent to 20.0 weight percent of the compounds described herein. […] The weight percent of the compounds described herein within the topical dosage forms may range from 1.0 weight percent to 15.0 weight percent or 5.0 weight percent to 11.0 weight percent. Treatment regimes with the topical dosage forms may occur daily, twice daily, three times daily or four times daily for durations, for example, of three weeks or four weeks or until symptoms are no longer present.

O=C(/C=C/c1ccc(O)c(O)c1)OCCc1ccccc1 [CAPE, caffeic acid phenethyl ester]
effectiveness for treating psoriasis: effective

Source: patent publication US20080167277A1, “METHODS OF TREATING SKIN DISORDERS WITH CAFFEIC ACID ANALOGS” (priority 2006, published 2008)
